Values quoted from earlier work, collected in patent US11122828B2, “Microbial compositions comprising ellagitannin and methods of use” (MarvelBiome, Inc., priority 2018, dated 2021).
Where two headings read alike, the source gives them in different places.

Key:
[1] = plasma concentration up to micromolar (μM) levels
colon cancer cells = details: in vitro
[2] = tested on: inflammatory markers including inducible nitric oxide synthase, cycloxygenase-2 (COX-2), prostaglandin E synthase and prostaglandin E2; details: rat colitis model

O=c1oc2cc(O)ccc2c2ccc(O)cc12 [urolithin A, 3,8-dihydroxyurolithin]
toxic effects in vivo [1]: without any apparent toxic effects
proliferation of colon cancer cells (colon cancer cells): inhibit proliferation
inflammatory markers in colonic mucosa [2]: decrease inflammatory markers

anthocyanins
bioavailability (in vivo): 0.3%

isoflavones
bioavailability (estimated, phenols): 43%
